Laboratory results: US20030176368A1, “Synthesis of epothilones, intermediates thereto and analogues thereof” (priority 2001, published 2003)
Read-outs that look alike come from different tables or passages of the source.

Assays:
[1] = system: CCRF-CEM/VBL100; assay: XTT cytotoxicity assay, vinblastine-resistant CCRF-CEM/VBL100 cells; type: cell-based, human
Description: (§1) XTT assay following 72 h inhibition. CCRF-CEM is a human T-cell acute lymphoblastic leukemia cell line. The CCRF-CEM/VBL100, CCRF-CEM/VM1, and CCRF-CEM/Taxol cell lines all overexpress P-glycoprotein and display a multidrug resistance phenotype to MDR-associated oncolytics. (Chou et al. Proc. Natl. Acad. Sci. USA 98:8113, 2001; incorporated herein by reference).
(§2) A typical experiment invovles culturing cells (e.g., CCRF-CEM) at an initial density of 2-5×10^4 cells per ml. They are maintained in a 5% CO2-humidified atmosphere at 37° C. in RPMI medium 1640 (GIBCO/BRL) containing penicillin (100 units/ml), streptomycin (100 μg/ml) (GIBCO/BRL), and 5% heat-inactivated fetal bovine serum. For cells that were grown in suspension (such as CCRF-CEM and its sublines), cytotoxicitiy is measured by using the 2,-3-bis(2-methoxy-4-nitro-5-sulfophenyl)-5 carboxanilide)-2H terazodium hydroxide (XTT)-microculture tetrazonium method in duplicate in 96-well microtiter plates. For both methods, the absorbance of each well is measured with a microplate reader (EL-340, Bio-Tek, Burlington, Vt.). Each run entails six or seven concentrations of the tested drugs. Dose-effect relationship data are analyzed with the median-effect plot.
(§3) The CCRF-CEM human T cells, acute lymphoblastic leukemic cells, its teniposide-resistant subline (CCRF-CEM/VM1) and vinblastine-resistant subline (CCRF-CEM/VBL100) are obtained from W. T. Beck (University of Illinois, Chicago, Ill.).

[2] = system: CCRF-CEM/VM1; assay: XTT cytotoxicity assay, teniposide-resistant CCRF-CEM/VM1 cells; type: cell-based, human
Description: as §1, §2, §3

[3] = system: CCRF-CEM; assay: XTT cytotoxicity assay, CCRF-CEM cells; type: cell-based, human; details: for activity in CCRF-CEM cell lines: Example 12, in words
Description: as §1, §2, §3

[4] = system: CCRF-CEM/Taxol; assay: XTT cytotoxicity assay, taxol-resistant CCRF-CEM/Taxol cells; type: cell-based, human; details: for activity in CCRF-CEM cell lines resistant to Taxol: Example 12, in words
Description: as §1, §2

[5] = system: tubulin; assay: Tubulin binding: formation of microtubules in the presence of the compounds; type: biochemical
Text: Indeed, the microtubule stabilizing ability closely parallels the observed cytotoxicity data.

[6] = Stability on exposure to murine plasma; type: in vitro ADME; details: compared with the parent compound
Text: See Chou et al. Proc. Natl. Acad. Sci. USA 98:8113, 2001, incorporated herein by reference, for details.
However, the apparently disappointing murine in vivo results should be viewed in the context of reports that dEpoB itself evidenced a degree of bioinstability in murine plasma; yet had much longer plasma half-lives in higher organisms, including humans (Chou et al. J. Proc. Natl. Acad. Sci. USA 98:8113, 2001; incorporated herein by reference). The observed discrepancy in efficacy between mice and other mammals, including humans, has been ascribed to higher esterase levels in rodents.

[7] = Example 6 table, XTT assay following 72 h inhibition, read-out: CCRF-CEM/VBL (IC50 (μM))
[8] = XTT assay following 72 h inhibition, read-out: In vitro Cytotoxicities (IC50) CCRF-CEM/VBL100
[9] = XTT assay following 72 h inhibition, read-out: In vitro Cytotoxicities (IC50) CCRF-CEM/VM1
[10] = Example 6 table, XTT assay following 72 h inhibition, read-out: CCRF-CEM (IC50 (μM))
[11] = XTT assay following 72 h inhibition, read-out: In vitro Cytotoxicities (IC50) CCRF-CEM
[12] = XTT assay following 72 h inhibition, read-out: In vitro Cytotoxicities (IC50) CCRF-CEM/Taxol
[13] = Homo sapiens, CCRF-CEM, Example 5 Table 1, 72 h inhibition, read-out: In vitro Cytotoxicities (IC50) C/VBL100
[14] = Homo sapiens, CCRF-CEM, Example 5 Table 1, 72 h inhibition, read-out: In vitro Cytotoxicities (IC50) C/VM1
[15] = Homo sapiens, CCRF-CEM, Example 5 Table 1, 72 h inhibition, read-out: In vitro Cytotoxicities (IC50) CCRF-CEM(C)
[16] = Homo sapiens, CCRF-CEM, Example 5 Table 1, 72 h inhibition, read-out: In vitro Cytotoxicities (IC50) C/Taxol
[17] = Homo sapiens, CCRF-CEM, Example 11 Table 2, XTT assay following 72-h inhibition, read-out: In Vitro Cytotoxicities (IC50) CCRF-CEM/VBL100
[18] = Homo sapiens, CCRF-CEM, Example 11 Table 2, XTT assay following 72-h inhibition, read-out: In Vitro Cytotoxicities (IC50) CCRF-CEM/VMI
[19] = Microtubules formed in the presence of dEpoB is defined as 100%
[20] = Homo sapiens, CCRF-CEM, Example 11 Table 2, XTT assay following 72-h inhibition, read-out: In Vitro Cytotoxicities (IC50) CCRF-CEM
[21] = Homo sapiens, CCRF-CEM, Example 11 Table 2, XTT assay following 72-h inhibition, read-out: In Vitro Cytotoxicities (IC50) CCRF-CEM/TAXOL

Molecule: 10,11-dehydro-12,13-desoxyepothilone B [Epo490]
- IC50 [1, 7]: 0.068 µM
- IC50 [1, 8]: 0.091 µM
- IC50 [2, 9]: 35 nM
- IC50 [3, 10]: 0.02 µM
- IC50 [3, 11]: 0.025 µM
- IC50 [4, 12]: 32 nM

Molecule: 10,11-dehydro-14,15-[18]desoxyepothilone B [[18]ddEpoB]
- % Tubulin Binding ([5]; Example 5 Table 1): 51%

Molecule: C/C1=C/C[C@@H](/C(C)=C/c2csc(C)n2)OC(=O)C[C@H](O)C(C)(C)C(=O)[C@H](C)[C@@H](O)[C@@H](C)CC2OC(C)(C)OC12 (stereo partly shown) [10, 11-ketal-dEpoB]
- activity in CCRF-CEM cell lines [3]: demonstrated activity
- activity in CCRF-CEM cell lines resistant to Taxol [4]: demonstrated activity

Molecule: C/C1=C/C[C@@H](/C(C)=C/c2csc(C)n2)OC(=O)C[C@H](O)C(C)(C)C(=O)[C@H](C)[C@@H](O)[C@@H](C)C[C@@H](O)[C@@H]1O [12 (dihydroxy)]
- IC50 [1, 13]: 99 µM
- IC50 [2, 14]: 2350 nM
- % Tubulin Binding ([5]; Example 5 Table 1): 31%
- IC50 [3, 15]: 1 µM
- IC50 [4, 16]: 16800 nM

Molecule: C/C1=C\[C@@H]2C[C@H](C)[C@H](O2)[C@@H](C)C(=O)C(C)(C)[C@@H](O)CC(=O)O[C@H](/C(C)=C/c2csc(C)n2)CC1O (stereo partly shown) [13 (THF macrocycle)]
- IC50 [1, 13]: 8.76 µM
- % Tubulin Binding ([5]; Example 5 Table 1): inactive
- IC50 [3, 15]: 0.761 µM
- IC50 [4, 16]: 4240 nM

Molecule: C/C1=C/C[C@@H](/C(C)=C/c2csc(C)n2)OC(=O)C[C@H](O)C(C)(C)C(=O)[C@H](C)[C@@H](O)[C@@H](C)CC2CC12 (stereo partly shown) [15 (cyclopropyl)]
- IC50 [1, 13]: 0.141 µM
- % Tubulin Binding ([5]; Example 5 Table 1): 84%
- IC50 [3, 15]: 0.077 µM

Molecule: CC1=C/C[C@@H](/C(C)=C/c2coc(C)n2)OC(=O)C[C@H](O)C(C)(C)C(=O)[C@H](C)[C@@H](O)[C@@H](C)C\C=C\1 [19-oxa epothilone 490]
- IC50 ([1]; Homo sapiens, CCRF-CEM, Example 9 table, read-out: Cell Growth Inhibition (IC50) CCRF-CEM/VBL): 0.06 µM
- IC50 ([3]; Homo sapiens, CCRF-CEM, Example 9 table, read-out: Cell Growth Inhibition (IC50) CCRF-CEM): 0.015 µM
- IC50 ([4]; Homo sapiens, CCRF-CEM, Example 9 table, read-out: Cell Growth Inhibition (IC50) CCRF-CEM/taxol): 40 nM

Molecule: C/C(=C\c1csc(C)n1)[C@@H]1C/C=C(/C(F)(F)F)C/C=C/C[C@H](C)[C@H](O)[C@@H](C)C(=O)C(C)(C)[C@@H](O)CC(=O)O1 [27-Tn-F-[17]ddEpoB (22), 10,11-dehydro-13,14-desoxy-27-trifluoro-[17]epothilone B]
- IC50 ([1]; Homo sapiens, CCRF-CEM, Example 6 table, XTT assay following 72 h inhibition, read-out: CCRF-CEM/VBL (IC50 (μM))): 0.191 µM
- stability in mouse blood plasma [6]: more stable
- IC50 ([3]; Homo sapiens, CCRF-CEM, Example 6 table, XTT assay following 72 h inhibition, read-out: CCRF-CEM (IC50 (μM))): 0.068 µM

Molecule: CC1=C/C[C@@H](/C(C)=C/c2csc(CO)n2)OC(=O)C[C@H](O)C(C)(C)C(=O)[C@H](C)[C@@H](O)[C@@H](C)C\C=C\1 [Compound 21-OH-Epo490]
- IC50 [1, 13]: 0.202 µM
- IC50 [1, 17]: 0.202 µM
- IC50 [2, 14]: 61 nM
- IC50 [2, 18]: 61 nM
- % Tubulin Binding ([5]; Example 5 Table 1): 77%
- % Tubulin Binding [5, 19]: 77%
- activity in CCRF-CEM cell lines [3]: demonstrated activity
- IC50 [3, 15]: 0.03 µM
- IC50 [3, 20]: 0.03 µM
- activity in CCRF-CEM cell lines resistant to Taxol [4]: demonstrated activity
- IC50 [4, 16]: 51 nM
- IC50 [4, 21]: 51 nM

Molecule: C/C(=C\c1csc(C)n1)[C@@H]1C/C=C(/CF)CCC[C@H](C)[C@H](O)[C@@H](C)C(=O)C(C)(C)[C@@H](O)CC(=O)O1 [Compound 26F-EpoD]
- activity in CCRF-CEM cell lines [3]: demonstrated activity
- IC50 ([3]; Example 12, read-out: activity for CCRF-CEM cell lines): ~0.0015 µM
- activity in CCRF-CEM cell lines resistant to Taxol [4]: demonstrated activity
- IC50 ([4]; Example 12, read-out: activity for CCRF-CEM/Taxol resistant cell lines): ~11 nM

Molecule: CC(=O)O[C@H]1C(=O)[C@@]2(C)[C@H]([C@H](OC(=O)c3ccccc3)[C@]3(O)C[C@H](OC(=O)[C@H](O)[C@@H](NC(=O)c4ccccc4)c4ccccc4)C(C)=C1C3(C)C)[C@]1(OC(C)=O)CO[C@@H]1C[C@@H]2O [Taxol, paclitaxel, reference compound]
- IC50 [1, 17]: 0.827 µM
- IC50 [2, 18]: 3 nM
- IC50 [3, 20]: 0.0021 µM
- IC50 [4, 21]: 81 nM

Molecule: CC1=CCC(C(C)=Cc2csc(C)n2)OC(=O)CC(O)C(C)(C)C(=O)C(C)C(O)C(C)CC=CC1 (stereo not shown) [[17]ddEpoB, 10,11-dehydro-13,14-[17]desoxyepothilone B]
- IC50 [1, 7]: 0.126 µM
- IC50 ([1]; Example 12, growth inhibition, read-out: activity, CCRF-CEM/VBL100 resistant cell lines): ~0.137 µM
- IC50 [1, 8]: 0.126 µM
- IC50 ([2]; Example 12, growth inhibition, read-out: activity, CCRF-CEM/VM1 resistant cell lines): ~55 nM
- IC50 [2, 9]: 55 nM
- % Tubulin Binding ([5]; Example 5 Table 1): 94%
- IC50 [3, 10]: 0.04 µM
- IC50 ([3]; Example 12, growth inhibition, read-out: activity, CCRF-CEM tumor cell lines): ~0.051 µM
- IC50 [3, 11]: 0.04 µM
- IC50 ([4]; Example 12, growth inhibition, read-out: activity, CCRF-CEM/Taxol resistant cell lines): ~49 nM
- IC50 [4, 12]: 53 nM

Molecule: C/C1=C/C[C@@H](/C(C)=C/c2csc(C)n2)OC(=O)C[C@H](O)C(C)(C)C(=O)[C@H](C)[C@@H](O)[C@@H](C)CCC1 [dEpoB, 12,13-desoxyepothilone B, reference compound]
- IC50 ([1]; Homo sapiens, CCRF-CEM, 72 h, read-out: In Vitro Cytotoxicities (IC50) CCRF-CEM/VBL100): 0.015 µM
- IC50 ([1]; Homo sapiens, CCRF-CEM, 72 h, read-out: In vitro Cytotoxicities (IC50) C/VBL100): 0.015 µM
- IC50 ([1]; Homo sapiens, CCRF-CEM, 72 h, read-out: In vitro Cytotoxicities (IC50) CCRF-CEM/VBL100): 0.015 µM
- IC50 ([2]; Homo sapiens, CCRF-CEM, 72 h, read-out: In Vitro Cytotoxicities (IC50) CCRF-CEM/VMI): 16 nM
- IC50 ([2]; Homo sapiens, CCRF-CEM, 72 h, read-out: In vitro Cytotoxicities (IC50) C/VM1): 16 nM
- IC50 ([2]; Homo sapiens, CCRF-CEM, 72 h, read-out: In vitro Cytotoxicities (IC50) CCRF-CEM/VM1): 16 nM
- % Tubulin Binding ([5]; Example 5 Table 1): 100%
- % Tubulin Binding [5, 19]: 100%
- IC50 ([3]; Homo sapiens, CCRF-CEM, 72 h, read-out: In Vitro Cytotoxicities (IC50) CCRF-CEM): 0.011 µM
- IC50 ([3]; Homo sapiens, CCRF-CEM, 72 h, read-out: In vitro Cytotoxicities (IC50) CCRF-CEM): 0.011 µM
- IC50 ([3]; Homo sapiens, CCRF-CEM, 72 h, read-out: In vitro Cytotoxicities (IC50) CCRF-CEM(C)): 0.011 µM
- IC50 ([4]; Homo sapiens, CCRF-CEM, 72 h, read-out: In Vitro Cytotoxicities (IC50) CCRF-CEM/TAXOL): 7 nM
- IC50 ([4]; Homo sapiens, CCRF-CEM, 72 h, read-out: In vitro Cytotoxicities (IC50) C/Taxol): 7 nM
- IC50 ([4]; Homo sapiens, CCRF-CEM, 72 h, read-out: In vitro Cytotoxicities (IC50) CCRF-CEM/Taxol): 7 nM

Molecule: CC[C@]1(O)C[C@@H]2CN(CCc3c([nH]c4ccccc34)[C@@](C(=O)OC)(c3cc4c(cc3OC)N(C)[C@H]3[C@@](O)(C(=O)OC)[C@H](OC(C)=O)[C@]5(CC)C=CCN6CC[C@]43[C@@H]65)C2)C1 [vinblastine, reference compound]
- IC50 [1, 17]: 0.122 µM
- IC50 [2, 18]: 1.4 nM
- IC50 [3, 20]: 0.0008 µM
- IC50 [4, 21]: 18 nM
